Source: article PMC7916272, “Colorimetric LPMO assay with direct implication for cellulolytic activity” (Biotechnology for Biofuels, 2021)

How the values were obtained:
Assay in all cases: absorbance of PHP at […] nm
Assay type in all cases: biochemical
SmAA10 = target: T1, SmAA10 (Serratia marcescens, UniProt P9WEM3); details: 1 µM Cu-loaded enzyme, with or without DHA, 40 °C, 30 min
T1 construct: gene CBP21; expressed using LyGo platform, purified to homogeneity, loaded with CuCl2

TfAA10A = target: T2, TfAA10A (Thermobifida fusca, UniProt Q47QG3); details: 1 µM Cu-loaded enzyme, with or without DHA, 40 °C, 30 min
T2 construct: gene Tfu_1268; expressed using LyGo platform, purified to homogeneity, loaded with CuCl2
T2 sequence (Q47QG3 37-222): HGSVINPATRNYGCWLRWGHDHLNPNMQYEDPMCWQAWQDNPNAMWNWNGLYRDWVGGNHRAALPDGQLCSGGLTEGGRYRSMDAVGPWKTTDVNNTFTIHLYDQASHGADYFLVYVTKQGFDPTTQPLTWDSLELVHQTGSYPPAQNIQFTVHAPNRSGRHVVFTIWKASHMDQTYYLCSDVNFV

AnAA13 = target: T3, AnAA13 (Aspergillus nidulans, UniProt Q5B1W7); details: 1 µM Cu-loaded enzyme, with or without DHA, 40 °C, 30 min
T3 construct: gene aasA; gift from Novozymes, purified to homogeneity, loaded with CuCl2
T3 sequence (Q5B1W7 19-385): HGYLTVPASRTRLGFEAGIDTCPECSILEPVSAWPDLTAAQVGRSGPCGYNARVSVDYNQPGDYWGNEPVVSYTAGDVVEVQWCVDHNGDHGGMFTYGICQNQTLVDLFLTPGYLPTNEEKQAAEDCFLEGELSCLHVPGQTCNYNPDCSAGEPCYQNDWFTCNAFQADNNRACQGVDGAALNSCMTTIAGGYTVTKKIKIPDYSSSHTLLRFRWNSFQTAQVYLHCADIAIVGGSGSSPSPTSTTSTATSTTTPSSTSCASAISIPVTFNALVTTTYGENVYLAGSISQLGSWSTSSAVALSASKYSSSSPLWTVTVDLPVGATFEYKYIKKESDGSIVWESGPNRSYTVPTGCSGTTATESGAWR

LsAA9A = target: T4, LsAA9A (Panus similis, UniProt A0A0S2GKZ1); details: 1 µM Cu-loaded enzyme, with or without DHA, 40 °C, 30 min
T4 construct: gene LPMO9A; gift from Novozymes, purified to homogeneity, loaded with CuCl2
T4 sequence (A0A0S2GKZ1 20-254): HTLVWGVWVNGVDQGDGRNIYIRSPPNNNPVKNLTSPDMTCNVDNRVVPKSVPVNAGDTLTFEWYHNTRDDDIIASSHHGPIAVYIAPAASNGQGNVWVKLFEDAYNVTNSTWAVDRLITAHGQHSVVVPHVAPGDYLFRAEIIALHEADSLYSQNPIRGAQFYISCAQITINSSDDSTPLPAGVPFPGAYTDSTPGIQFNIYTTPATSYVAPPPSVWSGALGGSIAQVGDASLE

TtAA9 = target: T5, TtAA9 (Thermothielavioides terrestris, UniProt D0VWZ9); details: 1 µM Cu-loaded enzyme, with or without DHA, 40 °C, 30 min
T5 construct: gene gh61e; gift from Novozymes, purified to homogeneity, loaded with CuCl2
T5 sequence (D0VWZ9 entry or part of it): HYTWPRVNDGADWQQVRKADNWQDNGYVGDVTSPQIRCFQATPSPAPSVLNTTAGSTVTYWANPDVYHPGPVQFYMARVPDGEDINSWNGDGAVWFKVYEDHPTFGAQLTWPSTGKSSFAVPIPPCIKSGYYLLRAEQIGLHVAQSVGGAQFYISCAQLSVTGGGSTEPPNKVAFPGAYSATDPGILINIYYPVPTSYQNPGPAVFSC

CotA = target: T6, CotA (Bacillus subtilis, UniProt H8WGE7); details: […] enzyme, with or without DHA, […] °C, […] min
T6 construct: recombinant from Escherichia coli, purified to homogeneity
T6 sequence (H8WGE7 1-513): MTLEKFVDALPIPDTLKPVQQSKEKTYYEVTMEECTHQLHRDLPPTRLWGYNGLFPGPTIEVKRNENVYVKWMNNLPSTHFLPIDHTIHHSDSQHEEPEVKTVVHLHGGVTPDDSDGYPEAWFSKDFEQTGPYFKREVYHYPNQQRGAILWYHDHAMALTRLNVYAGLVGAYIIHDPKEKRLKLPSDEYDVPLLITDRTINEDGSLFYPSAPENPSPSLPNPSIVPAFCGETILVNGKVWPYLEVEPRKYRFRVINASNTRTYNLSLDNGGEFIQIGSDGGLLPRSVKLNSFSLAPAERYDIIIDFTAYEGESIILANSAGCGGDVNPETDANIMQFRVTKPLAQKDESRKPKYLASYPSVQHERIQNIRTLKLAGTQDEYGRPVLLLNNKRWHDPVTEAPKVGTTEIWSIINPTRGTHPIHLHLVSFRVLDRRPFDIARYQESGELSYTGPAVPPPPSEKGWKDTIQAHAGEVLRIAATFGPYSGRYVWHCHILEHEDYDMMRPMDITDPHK

MtL = target: T7, MtL (Thermothelomyces thermophilus, UniProt G2QFD0); details: 1 µM enzyme, with or without DHA, 40 °C, 30 min
T7 construct: gene LMCO1; gift from Novozymes, purified to homogeneity
T7 sequence (G2QFD0 21-650): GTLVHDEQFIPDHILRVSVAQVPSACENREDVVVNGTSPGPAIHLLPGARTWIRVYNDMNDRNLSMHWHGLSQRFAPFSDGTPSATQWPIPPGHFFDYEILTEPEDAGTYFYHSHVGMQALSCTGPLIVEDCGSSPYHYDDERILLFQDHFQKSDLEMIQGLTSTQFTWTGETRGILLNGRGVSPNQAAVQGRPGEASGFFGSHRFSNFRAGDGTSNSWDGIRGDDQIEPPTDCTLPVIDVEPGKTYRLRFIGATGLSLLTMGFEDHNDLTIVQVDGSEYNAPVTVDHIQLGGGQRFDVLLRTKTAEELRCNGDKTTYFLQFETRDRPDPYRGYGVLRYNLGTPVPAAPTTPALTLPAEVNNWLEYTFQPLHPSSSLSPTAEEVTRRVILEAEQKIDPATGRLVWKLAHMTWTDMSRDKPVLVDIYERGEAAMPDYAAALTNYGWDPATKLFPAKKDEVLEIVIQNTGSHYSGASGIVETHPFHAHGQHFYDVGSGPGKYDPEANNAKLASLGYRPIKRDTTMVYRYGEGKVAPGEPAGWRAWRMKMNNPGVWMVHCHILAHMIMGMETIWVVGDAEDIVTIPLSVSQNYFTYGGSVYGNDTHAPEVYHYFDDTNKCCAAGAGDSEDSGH

T1 sequence (P9WEM3 28-197): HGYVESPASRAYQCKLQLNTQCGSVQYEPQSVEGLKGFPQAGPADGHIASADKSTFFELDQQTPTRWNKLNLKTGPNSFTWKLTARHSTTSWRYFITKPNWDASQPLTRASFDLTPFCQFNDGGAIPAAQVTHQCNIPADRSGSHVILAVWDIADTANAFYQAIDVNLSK

For `O=C(O)c1ccccc1C(c1ccc(O)cc1)c1ccc(O)cc1` [rPHP, reduced phenolphthalein], the “absorbance of PHP at 552 nm” value (SmAA10) was “All LPMOs tested oxidise rPHP in a DHA dependent reaction”, the “absorbance of PHP at 552 nm” value (TfAA10A) was “All LPMOs tested oxidise rPHP in a DHA dependent reaction” and the “absorbance of PHP at 552 nm” value (AnAA13) was “AnAA13 stands out with a relatively large rPHP oxidation without DHA”. The “absorbance of PHP at 552 nm” value (LsAA9A) was “All LPMOs tested oxidise rPHP in a DHA dependent reaction”, the “absorbance of PHP at 552 nm” value (TtAA9) was “All LPMOs tested oxidise rPHP in a DHA dependent reaction” and the “absorbance of PHP at 552 nm” value (CotA) was “did oxidise rPHP; however, the rPHP oxidising activity of these enzymes was not enhanced”. For the same compound, the “absorbance of PHP at 552 nm” value (MtL) was “did oxidise rPHP; however, the rPHP oxidising activity of these enzymes was not enhanced”.
